Laboratory results from ChEMBL document CHEMBL1134867, “Synthesis and initial structure-activity relationships of a novel series of imidazolo[1,2-a]pyrimid-5-ones as potent GnRH receptor antagonists” (Bioorg Med Chem Lett, 2002).

Columns and labels:
[1] = target: T1, Gonadotropin-releasing hormone receptor (Homo sapiens, UniProt P30968); assay: Ability to inhibit [125I-Tyr5,DLeu6,NMeLeu7,Pro9-NEt]GnRH agonist binding to the cloned human Gonadotropin-releasing hormone receptor was evaluated
T1 sequence (P30968 whole entry): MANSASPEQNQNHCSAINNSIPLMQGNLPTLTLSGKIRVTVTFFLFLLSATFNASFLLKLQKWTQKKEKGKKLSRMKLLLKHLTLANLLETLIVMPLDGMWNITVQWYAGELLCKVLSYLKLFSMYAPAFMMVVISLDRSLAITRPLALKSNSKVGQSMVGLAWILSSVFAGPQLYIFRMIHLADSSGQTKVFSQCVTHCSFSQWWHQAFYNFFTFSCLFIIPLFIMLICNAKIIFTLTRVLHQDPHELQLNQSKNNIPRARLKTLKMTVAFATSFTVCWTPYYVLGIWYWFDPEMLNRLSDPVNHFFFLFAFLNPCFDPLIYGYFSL

[2] = Oral bioavailability in rat; type: ADME, organism-based; conditions: in vivo
[3] = target: T1, Gonadotropin-releasing hormone receptor; assay: Ability of compound to inhibit [125I-Tyr5,DLeu6,NMeLeu7,Pro9-NEt]GnRH agonist binding to the cloned human Gonadotropin-releasing hormone receptor was evaluated
[4] = target: T2, Gonadotropin-releasing hormone receptor (Rattus norvegicus, UniProt P30969); assay: Ability of compound to inhibit [125I-Tyr5,DLeu6,NMeLeu7,Pro9-NEt]GnRH agonist binding to the rat Gonadotropin-releasing hormone receptor was evaluated
T2 sequence (P30969 whole entry): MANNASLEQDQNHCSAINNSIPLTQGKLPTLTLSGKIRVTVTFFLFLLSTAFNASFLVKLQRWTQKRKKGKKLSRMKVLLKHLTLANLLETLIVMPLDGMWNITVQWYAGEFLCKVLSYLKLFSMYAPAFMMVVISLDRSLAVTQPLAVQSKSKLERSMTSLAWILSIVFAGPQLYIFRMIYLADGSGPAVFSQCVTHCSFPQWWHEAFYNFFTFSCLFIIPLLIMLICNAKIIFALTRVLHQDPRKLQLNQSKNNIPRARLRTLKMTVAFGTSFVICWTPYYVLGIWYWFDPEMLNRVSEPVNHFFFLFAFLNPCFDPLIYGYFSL

Ki [1] [µM]	Compound	further results
30	CCCC(=O)Nc1ccc(-c2cn3c(=O)c(C(=O)OCC)cn(Cc4ccccc4F)c3n2)cc1	
0.041	CCC(CC)OC(=O)c1cn(Cc2ccccc2F)c2nc(-c3ccc(NC(=O)C(C)C)cc3)c(CN(C)Cc3ccccc3)n2c1=O	
0.0075	CCCC(=O)Nc1ccc(-c2nc3n(Cc4ccccc4F)cc(C(=O)OC(CC)CC)c(=O)n3c2CN(C)CCc2ccccn2)cc1	
0.036	CCCC(=O)Nc1ccc(-c2nc3n(Cc4ccccc4F)cc(C(=O)OC(CC)CC)c(=O)n3c2CN(C)CCOC)cc1	
	CC[C@H]1OC(=O)[C@H](C)[C@@H](OC(=O)N2C(=O)OC[C@@H]2C)[C@H](C)[C@@H](O[C@@H]2O[C@H](C)C[C@H](N(C)CC3CC3)[C@H]2O)[C@@](C)(OC)C[C@@H](C)C(=O)[C@H](C)[C@H]2N(CCc3ccc(Cl)c(Cl)c3)C(=O)O[C@]12C	bioavailability [2]: 15.2%; Ki [3]: 0.002 µM; Ki [4]: 0.000631 µM
0.052	CCCC(=O)Nc1ccc(-c2nc3n(Cc4ccccc4F)cc(C(=O)OC(CC)CC)c(=O)n3c2CN(C)Cc2cccnc2)cc1	
0.014	CCCC(=O)Nc1ccc(-c2nc3n(Cc4ccccc4F)cc(C(=O)OC(CC)CC)c(=O)n3c2CN(C)CCc2ccccc2)cc1	
0.29	CCCC(=O)Nc1ccc(-c2nc3n(Cc4ccccc4F)cc(C(=O)OC(CC)CC)c(=O)n3c2CN2CCc3ccccc3C2)cc1	
0.08	CCCC(=O)Nc1ccc(-c2nc3n(Cc4ccccc4F)cc(C(=O)OCC)c(=O)n3c2CN(C)Cc2ccccc2)cc1	
0.95	CCOC(=O)c1cn(Cc2ccccc2F)c2nc(-c3ccc(OC)cc3)c(CN(C)Cc3ccccc3)n2c1=O	
28	CCCC(=O)Nc1ccc(-c2cn3c(=O)c(C(=O)OC(CC)CC)cn(Cc4ccccc4F)c3n2)cc1	
2.2	CCCC(=O)Nc1ccc(-c2nc3n(Cc4ccccc4F)cc(C(=O)OC(CC)CC)c(=O)n3c2CN2CCCC2)cc1	
0.3	CCCC(=O)Nc1ccc(-c2nc3n(Cc4ccccc4F)cc(C(=O)OC(CC)CC)c(=O)n3c2CN(C)CC#N)cc1	
0.23	CCOC(=O)c1cn(Cc2ccccc2F)c2nc(-c3ccc(OC)cc3)c(CN(C)CCc3ccccn3)n2c1=O	
0.012	CCCC(=O)Nc1ccc(-c2nc3n(Cc4ccccc4F)cc(C(=O)OCC)c(=O)n3c2CN(C)CCc2ccccn2)cc1	
	Cc1cc(-c2c(O)nc3cc(Cl)c(C(=O)Nc4ncccn4)cc3c2OCC[C@@H]2CCN2)cc(C)c1C	IC50 [3]: 0.00044 µM; IC50 [4]: 0.004 µM
0.029	CCCC(=O)Nc1ccc(-c2nc3n(Cc4ccccc4F)cc(C(=O)OC(CC)CC)c(=O)n3c2CN(C)Cc2ccco2)cc1	
